Assay results published in US10806726B2, “Methods of using indazole-3-carb oxamides and their use as Wnt/B-catenin signaling pathway inhibitors” (Samumed, LLC, priority 2016, dated 2020).

Test system: primary human mesenchymal stem cells (hMSCs)
Test: Tenocyte differentiation screening in hMSCs (SCXA-positive cells, 4 days)
Assay type: cell-based
Details: 96 h, fold change over DMSO
Outline: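 Primary hMSCs at passage 3–6 were treated with compound, fixed and immunostained for SCXA, and SCXA-positive cells per well were counted by imaging. Counts were normalized to DMSO wells as fold change, averaged over triplicates, and EC50 was fitted, with high-dose values manually corrected for solubility.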

With COc1ccc(NC(=O)c2n[nH]c3ccc(-c4cncc(CN5CCCCC5)c4)cc23)cn1 [compound 175, N-(6-Methoxypyridin-3-yl)-5-(5-(piperidin-1-ylmethyl)pyridin-3-yl)-1H-indazole-3-carboxamide] the EC50 was 10.4 µM.
